Measured values from patent US9567306B2, “Inhibition of macrophage migration inhibitory factor in melanoma and colon cancer” (THE FEINSTEIN INSTITUTE FOR MEDICAL RESEARCH, priority 2014, dated 2017).
Entries after “also recorded” stand apart in the source; their conditions may differ.

Tests used:
[1] = test system: CT-26 colon tumors; conditions: administered twice per week (He et al.); cited from earlier work
[2] = molecular target: T1, MIF (Homo sapiens, UniProt P14174); assay: MIF tautomerase inhibition assay (L-dopachrome methyl ester); type: biochemical
T1 sequence (P14174 2-115 limits assumed): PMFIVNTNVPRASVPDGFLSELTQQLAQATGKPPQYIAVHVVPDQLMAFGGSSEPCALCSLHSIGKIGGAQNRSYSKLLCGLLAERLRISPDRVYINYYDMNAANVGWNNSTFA
Procedure: MIF tautomerase inhibition assay: MIF tautomerase activity was measured using a UV-Visible spectrophotometer (SHIMADZU, UV1600U). A fresh stock solution of L-dopachrome methyl ester was prepared at 2.4 mM through oxidation of L-3,4-dihydroxyphenylalanine methyl ester with sodium periodate. 1 μL of MIF solution (800-900 μg/mL) and 1 μL of a dimethyl sulfoxide (DMSO) solution with various concentrations of the MIF inhibitor were added into a plastic cuvette (10 mm, 1.5 mL) containing 0.7 mL assay buffer (50 mM potassium phosphate, pH 7.2). Then, activated L-dopachrome methyl ester solution (0.3 mL) was added to the assay buffer mixture. Activity was determined at room temperature and spectrometric measurements were made every 5 sec at λ, =475 nm for total 20 sec, by monitoring the rate of decolorization of L-dopachrome in comparison to a standard solution.

[3] = Solubility comparison; type: physicochemical; conditions: relative to ISO-66
[4] = Stability in buffer (decarboxylation, mass spectrometry); type: physicochemical; conditions: upon formulation in buffer; by mass spectrometry
[5] = test system: B16 tumor; conditions: 80 mg/kg (Yaddanapudi et al.); cited from earlier work

## COC(=O)CC1CC(c2ccc(O)cc2)=NO1 (centres unmarked) [ISO-1]
[1]
  inhibition of CT-26 colon tumors: 25%

## O=C(O)CC(=O)CC1CC(c2ccc(O)c(F)c2)=NO1 (centres unmarked) [KF III 53Y]
[2]
  IC50: 1800 nM
[3]
  solubility: better solubility than ISO-66
[4]
  stability (decarboxylation to ISO-66): spontaneously decarboxylates to form ISO-66; also recorded: undergoes fast decarboxlyation to form ISO-66; also recorded: spontaneously decarboxylated non-enzymatically

## Ic1cc(-c2ccccc2)ncn1 [4-IPP]
[5]
  effect on rate of B16 tumor growth: significantly slowed the rate of B16 tumor growth
